Where two headings read alike, the source gives them in different places.
Tests used:
[1] = Pharmacokinetics of scoparone, geniposide and rhein in rat plasma after oral administration of the herbal formula Yin-Chen-Hao-Tang (UPLC-MS/MS); format: in vivo, Male Sprague Dawley rats
Description: All samples were subjected to chromatographic separation using the Shimadzu UPLC system with an Acquity UPLC BEH C18 column (1.7 µm, 100 mm × 2.1 mm) (Waters Corp., Milford, MA, USA). Samples were maintained in the autosampler at 4 °C with […] of each being injected into the column. Chromatographic separations were conducted at 35 °C with a flow rate of 0.2 mL/min. The mobile phase was 1 mM ammonium acetate with 0.1% formic acid and methanol. A gradient elution was used from 20% methanol (0–2 min) to 95% methanol (3–11 min) then decreased to 20% methanol at 12 min. The overall run time is 20 mins. MRM transitions were scoparone (m/z 207 → 151), geniposide (m/z 406 → 227), rhein (m/z 283 → 240) and carbamazepine (m/z 237 → 194) for quantitation. Data acquisition was controlled with LabSolutions v. 5.60 SP1 software (Shimadzu, Kyoto, Japan).
Sample preparations were made using the protein precipitation process. A forty-five-microliter aliquot of blank plasma sample was mixed with 5 µL of internal standard solution and 100 μL […] was added. The mixture was vortexed for 5 min and centrifuged at 16,000× g for 10 min at 4 °C. The supernatant layer was then collected and transferred through a 0.22 μm membrane filter (0.22 μm, Millex-GV, Millipore, USA) to 1.5 mL autosampler vials. Finally, 20 µL was used for injection into the UPLC-MS/MS system.
Male Sprague Dawley rats weighing 230 ± 30 g were used for the following pharmacokinetic (PK) study. The rats were housed under controlled environmental conditions with free access to food and drinking water up to 12 h prior to experiments. The experimental protocol was approved by the Institutional Animal Ethics Committee of National Yang-Ming University, Taipei, Taiwan (IACUC1070112). All rats divided into two experimental groups were intragastrically fed pharmaceutical herbal product formula Yin-Chen-Hao Tang suspended in normal saline at 1 g/kg or 3 g/kg corresponding to the clinical daily dose of 9.7 g and 29.2 g in a 60 kg adult. Blood samples were collected via a polyethylene tubing (PE-50) implanted priory in the jugular vein of each rat in a heparin-rinsed vial. An aliquot of 100–120 µL blood was collected at time intervals of 0, 5, 15, 30, 60, 90, 120, 180, 240, 300 and 360 min after oral administration of the herbal product. Each group contained a total of six rats to diminish individual variation. All blood samples were immediately centrifuged as mentioned above (16,000× g for 10 min at 4 °C) and stored at −20 °C until analysis.
The pharmacokinetic parameters were calculated using the pharmacokinetic software WinNonlin Standard Edition, version 1.1 (Scientific Consulting Inc., Apex, NC, USA). The area under the plasma concentration-time curve (AUC), terminal elimination half-life (t1/2) and oral clearance (CL) were estimated using non-compartmental analysis. The maximum plasma concentration (Cmax) and time to reach the maximum concentration (Tmax) was directly applied from the plasma concentration-time curve. Pharmacokinetic parameters of each individual data set were calculated using WinNonlin Standard Edition, version 1.1 (Pharsight Corp., Mountain View, CA, USA). Statistics and graphics were performed with SPSS version 18.0 (SPSS Inc., Chicago, IL, USA) and SigmaPlot 10.0 software (Systat Software Inc., San Jose, CA, USA). All values were expressed as the mean ± standard deviation (S.D.).

[2] = parameters: method as in PMID 21945452; conditions: oral administration of 50–200 mg of rhein, healthy Chinese subjects; cited from earlier work
[3] = male, Sprague Dawley, rat, in vivo
[4] = male, Sprague Dawley, rat, in vivo, po, 1 g/kg
[5] = male, Sprague Dawley, rat, in vivo, po, 3 g/kg
[6] = rat plasma, YCHT 3 g/kg p.o., mean ± S.D., n = 6
[7] = rat plasma, YCHT 3 g/kg vs 1 g/kg p.o.

| increase of AUC in the 3 g/kg group compared to the 1 g/kg group [1, 3] | ratio of AUC adjusted to the administered dose, high-dose group vs low-dose group [1, 3] | AUC [1, 4] | CL (clearance) [1, 4] | Cmax [1, 4] | MRT [1, 4] | Tmax [1, 4] | half-life [1, 4] | AUC [1, 5] | AUC/dose [1, 5] | CL (clearance) [1, 5] | Cmax [1, 5] | MRT [1, 5] | Tmax [1, 5] | half-life [1, 5] | Structure (SMILES) | further results |
| --- | --- | --- | --- | --- | --- | --- | --- | --- | --- | --- | --- | --- | --- | --- | --- | --- |
| 7.5 fold | 2.5 times | 15.9 ng·h/mL | 394.7 ± 209.4 mL/min/kg | 18 ± 12 ng/mL | 0.317 h | 0.233 h | 0.433 ± 0.0833 h | 119 ng·h/mL | 2.374 ± 1.126 | 131.5 ± 123.6 mL/min/kg | 132 ± 137 ng/mL | 0.85 h | 0.35 h | 1.15 ± 0.917 h | COc1cc2ccc(=O)oc2cc1OC [Scoparone, 6,7-dimethoxycoumarin] |  |
|  |  |  |  |  |  |  |  |  |  |  |  |  |  |  | COC(=O)C1=CO[C@@H](O[C@@H]2O[C@H](CO)[C@@H](O)[C@H](O)[C@H]2O)[C@@H]2C(CO)=CC[C@H]12 [Geniposide, geniposide] | AUC ([1]; male, Sprague Dawley, in vivo, po, rat plasma, YCHT 1 g/kg p.o., mean ± S.D., n = 6, read-out: AUC (converted)): 313 ng·h/mL; Cmax ([1]; male, Sprague Dawley, in vivo, po, rat plasma, YCHT 1 g/kg p.o., mean ± S.D., n = 6, read-out: Cmax): 145 ± 251 ng/mL; MRT ([1]; male, Sprague Dawley, in vivo, po, rat plasma, YCHT 1 g/kg p.o., mean ± S.D., n = 6, read-out: MRT (mean retention time) (converted)): 1.92 h; Tmax ([1]; male, Sprague Dawley, in vivo, po, rat plasma, YCHT 1 g/kg p.o., mean ± S.D., n = 6, read-out: Tmax (converted)): 1.35 h; half-life ([1]; male, Sprague Dawley, in vivo, po, rat plasma, YCHT 1 g/kg p.o., mean ± S.D., n = 6, read-out: t1/2 (elimination half-life)): 1.33 ± 0.3 h; AUC ([1]; male, Sprague Dawley, in vivo, po, rat plasma, YCHT 3 g/kg p.o., mean ± S.D., n = 6, read-out: AUC (converted)): 1580 ng·h/mL; Cmax ([1]; male, Sprague Dawley, in vivo, po, rat plasma, YCHT 3 g/kg p.o., mean ± S.D., n = 6, read-out: Cmax): 604 ± 256 ng/mL; MRT ([1]; male, Sprague Dawley, in vivo, po, rat plasma, YCHT 3 g/kg p.o., mean ± S.D., n = 6, read-out: MRT (mean retention time) (converted)): 2.53 h; Tmax ([1]; male, Sprague Dawley, in vivo, po, rat plasma, YCHT 3 g/kg p.o., mean ± S.D., n = 6, read-out: Tmax (converted)): 1.35 h; half-life ([1]; male, Sprague Dawley, in vivo, po, rat plasma, YCHT 3 g/kg p.o., mean ± S.D., n = 6, read-out: t1/2 (elimination half-life)): 1.43 ± 0.483 h; concentration at 180 min ([1]; male, Sprague Dawley, rat, in vivo, typical plasma sample collected 180 min after oral YCHT 3 g/kg): 287 ng/mL; CL (clearance) ([1]; rat plasma, YCHT 1 g/kg p.o., mean ± S.D., n = 6): 1403 ± 1018 mL/min/kg; AUC/dose [1, 6]: 31.63 ± 10.76; CL (clearance) [1, 6]: 259.8 ± 109.2 mL/min/kg; increase of AUC in the 3 g/kg group compared to the 1 g/kg group [1, 7]: 5.1 fold; ratio of AUC adjusted to the administered dose, high-dose group vs low-dose group [1, 7]: 1.7 times |
| 6.8 fold | 2.3 times | 485 ng·h/mL | 3.710 ± 1.366 mL/min/kg | 311 ± 166 ng/mL | 1.77 h | 0.2 h | 2.02 ± 0.767 h | 3310 ng·h/mL | 66.18 ± 17.09 | 1.483 ± 0.357 mL/min/kg | 1660 ± 805 ng/mL | 1.93 h | 0.383 h | 1.73 ± 1.15 h | O=C(O)c1cc(O)c2c(c1)C(=O)c1cccc(O)c1C2=O [Rhein, rhein] | pharmacokinetics, dose linearity [2]: Linear pharmacokinetics |

— article PMC6222633, “Preclinical Pharmacokinetics of Scoparone, Geniposide and Rhein in an Herbal Medicine Using a Validated LC-MS/MS Method” (Molecules : A Journal of Synthetic Chemistry and Natural …, 2018)
